Data from ChEMBL document CHEMBL1151883, “Design and synthesis of bisenediyne bissulfones and their reactivity under basic condition” (Bioorg Med Chem Lett, 2009).
Calls of active or inactive are those of the source. No cut-off for these calls is given here.

Tests used:
Type in all cases: nucleic-acid assay
Conditions in all cases: Escherichia coli
Nucleic Acid [1] = experiment: Induction of supercoiled pBR322 DNA cleavage at PH 7.2 after 8 hrs at 37 degC in absence of triethylamine
Nucleic Acid [2] = experiment: Induction of supercoiled pBR322 DNA cleavage at PH 7.2 after 16 hrs at 37 degC in absence of triethylamine
Nucleic Acid [3] = experiment: Induction of supercoiled pBR322 DNA cleavage at PH 7.2 after 16 hrs at 37 degC in presence of triethylamine
Nucleic Acid [4] = experiment: Induction of supercoiled pBR322 DNA cleavage at PH 7.2 after 8 hrs at 37 degC in presence of triethylamine

| SMILES | Activity (Nucleic Acid [1]) | Activity (Nucleic Acid [2]) | Activity (Nucleic Acid [3]) [%] | Activity (Nucleic Acid [4]) [%] |
| --- | --- | --- | --- | --- |
| O=S(=O)(C=C=Cc1ccccc1C#CC#Cc1ccccc1C#CCS(=O)(=O)c1ccccc1)c1ccccc1 | Active | Active | – | – |
| O=S(=O)(CC#Cc1ccccc1C#Cc1ccccc1C#CCS(=O)(=O)c1ccccc1)c1ccccc1 | – | – | 45 | 45 |
| O=S(=O)(C=C=Cc1ccccc1C#Cc1ccccc1C#CCS(=O)(=O)c1ccccc1)c1ccccc1 | Active | Active | – | – |
| O=S(=O)(CC#Cc1ccccc1C#CC#Cc1ccccc1C#CCS(=O)(=O)c1ccccc1)c1ccccc1 | – | – | 62 | 47 |
